Values of other authors as cited in patent publication US20060148877A1, “Pharmaceutical formulations of celcoxib” (TransForm Pharmaceuticals, Inc., priority 2002, published 2006).

Settings: commercially available form (CELEBREX), neutral molecule

solubility in water: essentially insoluble in water
Compound: Cc1ccc(-c2cc(C(F)(F)F)nn2-c2ccc(S(N)(=O)=O)cc2)cc1 [celecoxib, 4-[5-(4-methylphenyl)-3-(trifluoromethyl)-1H-pyrazol-1-yl]benzenesulfonamide]
